5 molecules from patent US5334716A, “Heterocyclic derivatives” (Fujisawa Pharmaceutical Co., Ltd., priority 1991, dated 1994) can be followed below.

Structures are written as SMILES.

For the test, the target named is prostatic testosterone 5α-reductase. The test can be described thus: Inhibitory activity on testosterone 5α-reductase in rats. In kind it is biochemical, rat (Spraque-Dawley). As to conditions: rat ventral prostate 5α-reductase suspension, 3H-testosterone 2.2×10^-9 M, 50 μM NADPH, pH 6.5, 37° C., 30 minutes. From the text:
[2] Inhibitory activity on testosterone 5α-reductase in rats
1,2,6,7-^3 H-Testosterone (85-105 Ci/mmol) is a mixture of 1,2,6,7-^3 H-testosterone and testosterone which includes 85-105 Ci of 1,2,6,7-^3 H-testosterone per mmol of testosterone and is purchased from New England Nuclear, Boston, Mass., U.S.A.
Aquazol-2 (Aquazol-2 Universal LSC Cocktail): trademark, purchased from New England Nuclear, Boston, Mass., U.S.A. ii) Preparation of prostatic testosterone 5α-reductase
Mature Spraque-Dawley male rats (7-8 weeks old) were sacrificed by diethyl ether. The ventral prostates were dissected to be free of their capsules and their combined volume was measured by displacement in several milliliters of ice-cold medium A (0.32M sucrose, 0.1 mM dithiothreitol and 20 mM sodium phosphate, pH 6.5). Unless specified, all the following procedures were carried out at 0°-4° C. The prostates were drained, minced, and then homogenized in 3-4 tissue volumes of medium A with Pyrex-glass homogenizer. The homogenate was fractioned by differential centrifugations at […]. The resulting pellets were resuspended in medium A. The suspension (20-30 mg protein/ml) was stored at -80° C. […]
iii) Testosterone 5α-reductase assay
The reaction solution contains 1 mM dithiothreitol, 40 mM sodium phosphate pH 6.5, 50 μM NADPH, 1,2,6,7-^3 H-testosterone/testosterone (2.2×10^-9 M) and the suspension prepared above (0.8 mg of protein) in a total volume of 565 μl. Test Compound was added in 10 μl of 10% ethanol whereas control tubes received the same volume of 10% ethanol. The reaction was started with the addition of the enzyme suspension. After incubation at 37° C. for 30 minutes, the reaction was extracted with 1 ml of ethyl acetate. Fifty μl of ethyl acetate phase was chromatographed on a Merck silica plastic sheet Kieselgel 60 F254, using ethyl acetate: cyclohexane (1:1) as the developing solvent system. The plastic sheet was air dried and cut the testosterone and the 5α-dihydrotestosterone areas. The radioactivity was counted in 5 ml of Aquazol-2 in Packard scintillation counter (PACKARD TRI - CARB 4530), and an inhibitory ratio was calculated.
Turning to `CC(C)Cc1ccc(C(Nc2ccc(C(=O)c3cc(CCCC(=O)O)n4ccccc34)cc2)c2ccc(CC(C)C)cc2)cc1` [(2), 4-[1-[4-[Bis(4-isobutylphenyl)methylamino]benzoyl]indolizin-3-yl]butyric a cid], the IC50 (in general, the point on the concentration scale where inhibition reaches its midpoint) was 0.44 nM. `CCC(Oc1ccc(C(=O)c2cc(CCCC(=O)O)n3ccccc23)cc1)c1ccc(CC(C)C)cc1` (centres unmarked) [(4), 4-[1-[4-[1-(4-Isobutylphenyl)propyloxy]benzoyl]indolizin-3-yl]butyric acid] returned an IC50 of 0.55 nM. With `CC(C)Cc1ccc(C(Oc2cccc(C(=O)c3cc(CCCC(=O)O)c4ccccn34)c2)c2ccc(CC(C)C)cc2)cc1` [(3), 4-[3-[3-[Bis(4-isobutylphenyl)methoxy]benzoyl]indolizin-1-yl]butyric acid], half-maximal inhibition (IC50) was put at 6.7 nM. This IC50 lies about 12-fold higher than the previous one.

In turn, `CC(C)Cc1ccc(C(Nc2cccc(C(=O)c3cc(CCCC(=O)O)c4ccccn34)c2)c2ccc(CC(C)C)cc2)cc1` [Compound (1), 4-[3-[3-[Bis(4-isobutylphenyl)methylamino]benzoyl]indolizin-1-yl]butyric a cid] showed a half-maximal inhibitory concentration (IC50) of 2.3 nM. The molecule `CCCCC(Oc1ccc(C(=O)c2cc(CCCC(=O)O)n3ccccc23)cc1)c1ccc(CC(C)C)cc1` (centres unmarked) [(5), 4-[1-[4-[1-(4-Isobutylphenyl)pentyloxy]benzoyl]indolizin-3-yl]butyricacid] showed an IC50 of 1.8 nM.
